Among the data in PubChem BioAssay AID1259407 (Chemical Carcinogenesis Research Information System (CCRIS), 2018) are mutagenic call values, retold here.

The data set deals with CCRIS mutagenicity, Ames/micronucleus/aberration tests. Kind of data set: CCRIS mutagenicity studies.
The mark [1] stands for this setting: Test System: AMES SALMONELLA TYPHIMURIUM, Strain/Indicator: TA98, Metabolic Activation: NONE, Method: STANDARD PLATE.
The mark [2] stands for this setting: Test System: AMES SALMONELLA TYPHIMURIUM, Strain/Indicator: TA98, Metabolic Activation: RAT, LIVER, S-9, AROCLOR 1254, Method: STANDARD PLATE.
[3] abbreviates: Test System: AMES SALMONELLA TYPHIMURIUM, Strain/Indicator: TA100, Metabolic Activation: NONE, Method: STANDARD PLATE.

Calls of active or inactive are those of the source. The rule behind the calls is not given here.

On to `CCCOc1cc(N=Nc2ccc(N(CCO)CCO)cc2)ccc1N=Nc1c(S(=O)(=O)O)cc2ccc(N)cc2c1O`, for which the mutagenic call was “inactive; negative” under setting [1]; “active; positive” under setting [2]; “inactive; negative” under setting [3]; “inactive; negative” (Test System: AMES SALMONELLA TYPHIMURIUM, Strain/Indicator: TA100, Metabolic Activation: RAT, LIVER, S-9, AROCLOR 1254, Method: STANDARD PLATE); “inactive; negative” (Test System: AMES SALMONELLA TYPHIMURIUM, Strain/Indicator: TA1538, Metabolic Activation: NONE, Method: STANDARD PLATE); “active; positive” (Test System: AMES SALMONELLA TYPHIMURIUM, Strain/Indicator: TA1538, Metabolic Activation: RAT, LIVER, S-9, AROCLOR 1254, Method: STANDARD PLATE).

Take `CCCN(CCC)CCc1cccc2[nH]c3c(C)ccc(C)c3c12`: the mutagenic call is “inactive; negative” under setting [1]; “active; positive” (Test System: AMES SALMONELLA TYPHIMURIUM, Strain/Indicator: TA98, Metabolic Activation: RAT, LIVER, S-9, PHENOBARBITAL AND 5,6-BENZOFLAVONE, Method: STANDARD PLATE); “inactive; negative” under setting [3]; “active; positive” (Test System: AMES SALMONELLA TYPHIMURIUM, Strain/Indicator: TA100, Metabolic Activation: RAT, LIVER, S-9, PHENOBARBITAL AND 5,6-BENZOFLAVONE, Method: STANDARD PLATE); “active; positive” (Test System: UDS HUMAN HEPATOCYTES, Strain/Indicator: THY INCORP, Metabolic Activation: NONE, Method: IN VITRO); “active; positive” (Test System: UDS RAT HEPATOCYTES, Strain/Indicator: THY INCORP, Metabolic Activation: NONE, Method: IN VIVO-IN VITRO).

As to `O=C(CBr)c1oc([N+](=O)[O-])c(-c2ccccc2)c1-c1ccccc1`, the mutagenic call reads like this: (Test System: AMES SALMONELLA TYPHIMURIUM, Strain/Indicator: TA98(NR), Metabolic Activation: NONE, Method: STANDARD PLATE) “active; positive”; under setting [1], “active; positive”; (Test System: AMES SALMONELLA TYPHIMURIUM, Strain/Indicator: TA100(NR), Metabolic Activation: NONE, Method: STANDARD PLATE) “active; positive”; under setting [3], “active; positive”.

As to `C1=CC2OC2c2ccc3c4c5c(cccc5cc3c21)C=C4` (stereo unspecified), the mutagenic call runs as follows: under setting [1], “inactive; negative”; (Test System: AMES SALMONELLA TYPHIMURIUM, Strain/Indicator: TA98, Metabolic Activation: RAT, LIVER, S-9, AROCLOR 1254 (0.4, 0.8, 1.15 OR 1.5 MG/PLATE), Method: STANDARD PLATE) “active; positive”; under setting [2], “active; positive”.

Take `Cc1c2ccccc2c(CCl)c2ccccc12`: the mutagenic call (Test System: AMES SALMONELLA TYPHIMURIUM, Strain/Indicator: TA1537, Metabolic Activation: NONE, Method: STANDARD PLATE) is “active; positive”.

With `O=[N+]([O-])c1cccc2c([N+](=O)[O-])cccc12`, the mutagenic call is “active; positive (structural changes)” (End Point: IN VITRO CHROMOSOMAL ABERRATIONS, Test System: CHL CELLS, Metabolic Activation: RAT, LIVER, S-9, SODIUM PHENOBARBITAL AND 5,6-BENZOFLAVONE); “active; positive” (Test System: AMES SALMONELLA TYPHIMURIUM, Strain/Indicator: TA98, Metabolic Activation: HAMSTER, LIVER, S-9, AROCLOR 1254 (30%), Method: PREINCUBATION); “active; positive” (Test System: AMES SALMONELLA TYPHIMURIUM, Strain/Indicator: TA98, Metabolic Activation: NONE, Method: PREINCUBATION); “active; positive” (Test System: AMES SALMONELLA TYPHIMURIUM, Strain/Indicator: TA98, Metabolic Activation: RAT LIVER S-9, PHENOBARBITAL AND BETA-NAPHTHOFLAVONE, Method: PREINCUBATION); “active; positive” (Test System: AMES SALMONELLA TYPHIMURIUM, Strain/Indicator: TA98, Metabolic Activation: RAT, LIVER, S-9, AROCLOR 1254 (30%), Method: PREINCUBATION); “active; positive” (Test System: AMES SALMONELLA TYPHIMURIUM, Strain/Indicator: TA100, Metabolic Activation: HAMSTER, LIVER, S-9, AROCLOR 1254 (30%), Method: PREINCUBATION). Also, the mutagenic call by setting is: (Test System: AMES SALMONELLA TYPHIMURIUM, Strain/Indicator: TA100, Metabolic Activation: NONE, Method: PREINCUBATION) “active; positive”; (Test System: AMES SALMONELLA TYPHIMURIUM, Strain/Indicator: TA100, Metabolic Activation: RAT LIVER S-9, PHENOBARBITAL AND BETA-NAPHTHOFLAVONE, Method: PREINCUBATION) “active; positive”; (Test System: AMES SALMONELLA TYPHIMURIUM, Strain/Indicator: TA100, Metabolic Activation: RAT, LIVER, S-9, AROCLOR 1254 (30%), Method: PREINCUBATION) “active; positive”; (Test System: AMES SALMONELLA TYPHIMURIUM, Strain/Indicator: TA1535, Metabolic Activation: NONE, Method: PREINCUBATION) “inactive; negative”; (Test System: AMES SALMONELLA TYPHIMURIUM, Strain/Indicator: TA1535, Metabolic Activation: RAT LIVER S-9, PHENOBARBITAL AND BETA-NAPHTHOFLAVONE, Method: PREINCUBATION) “inactive; negative”; (Test System: AMES SALMONELLA TYPHIMURIUM, Strain/Indicator: TA1537, Metabolic Activation: NONE, Method: PREINCUBATION) “active; positive”. Moreover, the mutagenic call is “active; positive” (Test System: AMES SALMONELLA TYPHIMURIUM, Strain/Indicator: TA1537, Metabolic Activation: RAT LIVER S-9, PHENOBARBITAL AND BETA-NAPHTHOFLAVONE, Method: PREINCUBATION); “active; positive” (Test System: AMES SALMONELLA TYPHIMURIUM, Strain/Indicator: TA1538, Metabolic Activation: NONE, Method: PREINCUBATION); “active; positive” (Test System: AMES SALMONELLA TYPHIMURIUM, Strain/Indicator: TA1538, Metabolic Activation: RAT LIVER S-9, PHENOBARBITAL AND BETA-NAPHTHOFLAVONE, Method: PREINCUBATION); “inactive; negative” (Test System: E.COLI, Strain/Indicator: WP2UVRA, Metabolic Activation: NONE, Method: PREINCUBATION); “active; positive” (Test System: E.COLI, Strain/Indicator: WP2UVRA, Metabolic Activation: RAT LIVER S-9, PHENOBARBITAL AND BETA-NAPHTHOFLAVONE, Method: PREINCUBATION).

Consider `CC(C)(C)c1ccc(-c2ccc(N=O)cc2)cc1`, for which the mutagenic call was “active; positive” under setting [1]; “active; positive” (Test System: AMES SALMONELLA TYPHIMURIUM, Strain/Indicator: TA98, Metabolic Activation: S-9, Method: STANDARD PLATE); “active; positive” under setting [3]; “active; positive” (Test System: AMES SALMONELLA TYPHIMURIUM, Strain/Indicator: TA100, Metabolic Activation: S-9, Method: STANDARD PLATE).

On to `O=[N+]([O-])c1cc2[nH]c3ccc4ccccc4c3c2c2ccc(O)cc12`, for which the mutagenic call by setting is: under setting [1], “inactive; negative”; (Test System: AMES SALMONELLA TYPHIMURIUM, Strain/Indicator: TA98, Metabolic Activation: RAT, LIVER, S-9, 3-METHYLCHOLANTHRENE, Method: STANDARD PLATE) “active; positive”; under setting [3], “active; positive”; (Test System: AMES SALMONELLA TYPHIMURIUM, Strain/Indicator: TA100, Metabolic Activation: RAT, LIVER, S-9, 3-METHYLCHOLANTHRENE, Method: STANDARD PLATE) “active; positive”.

As to `CCC(=O)NCc1ccccc1`, the mutagenic call under setting [3] was “inactive; negative”.
